Laboratory results as given in paper PMC9945177, “Nature-Derived Epoxy Resin Monomers with Reduced Sensitizing Capacity—Isosorbide-Based Bis-Epoxides” (Chemical Research in Toxicology, 2023).

Assay: skin permeability, static Franz diffusion cells
Format: in vitro ADME, pig
Details: for permeation of epidermis: 6 h experiment, donor 0.1 mg/mL; for recovery at 6 h, 0.1 mg/mL: pig; for recovery at 6 h, 0.1 mg/mL / amount in receptor fluid after 6 h (%) / amount on/in skin (%) / recovery (%): w/w %; for recovery at 6 h, 0.1 mg/mL / recovery (%): sum of receptor compartment after 6 h and overnight skin extraction; for amount on/in skin (%): overnight skin extraction after 6 h
Experimental: For the permeability experiments, ultra-performance liquid chromatography-electrospray ionization tandem mass spectroscopy (UPLC)-ESI-MS/MS analysis was carried out using a Xevo TQ-S micro triple quadrupole mass spectrometer equipped with an electrospray interface and coupled to an Acquity UPLC H-Class Plus system from Waters. Separation was achieved on an ACE Excel C18-PFP column (75 × 2.1 mm, 1.7 μm) from Advanced Chromatography Technologies Ltd. (Aberdeen, Scotland). Mobile phase A consisted of 0.1% formic acid and 5% acetonitrile in water, whereas mobile phase B consisted of 0.1% formic acid and 5% water in acetonitrile. The gradient program used was as follows: 20% B (0–2 min), 20–80% B (2–9 min), 80–95% B (9–9.1 min), 95% B (9.1–12 min), 95–20% B (12–12.1 min), 20% B (12.1–15 min). The flow rate was set to 0.3 mL/min and the injection volume was 2 μL. Analysis was performed in positive ionization mode using a Multiple Reaction Monitoring (MRM) method. The optimal parameters were capillary voltage 1.5 (kV), desolvation temperature 650 °C, desolvation gas 850 L/h, and cone 100 L/h.
The Franz diffusion cell experiment was based on the OECD Test Guidelines.[35] Static Franz diffusion cells equipped with pig ex vivo epidermis were used to assess the permeability of isosorbide bis-epoxides 2 and 3. Freshly cut pig ears were received frozen and stored at −20 °C until used for permeability assessment. One day before the experiment, the ears were transferred at +4 °C and allowed to thaw. The ears were then washed, shaved, and carefully cut with a Watson Dermatome skin graft knife to obtain 0.1 mm pieces of the epidermis layer. The integrity of the skin (transparent and intact) was determined by ocular inspection. Thereafter, the epidermis layer was cut and positioned between the donor and receptor compartment of each Franz cell. The receptor compartments were filled with 5 mL of ethanol/PBS (1:1) and equipped with a small magnetic stir bar to ensure mixing while maintaining a constant temperature of the circulating water at 37 °C. To equilibrate the skin, the upper chamber was filled with 0.5 mL of ethanol/PBS (1:1) which was later removed and replaced with the donor solution (50 μL) containing either 2 or 3 (0.1 mg/mL) or DGEBA (0.1 mg/mL) used as a positive control. A procedural blank containing only 50 μL of ethanol/PBS (1:1) in the donor compartment was also included in the experimental setup. Samples of 100 μL were collected after 0–2 min, 1, 2, 3, 4, 5, and 6 h. At each timepoint, a sample aliquot was removed and 100 μL of ethanol/PBS (1:1) was added to the receptor compartment to keep the volume constant. After 6 h, the skin from each Franz cell was extracted overnight in 5 mL of ethanol/PBS (1,1). Triplicate experiments were performed for each compound. The obtained samples were analyzed with UPLC-ESI-MS/MS (see Figure S2 for parameters) and quantification was based on external calibration curves. The limit of quantification (LOQ) was determined by the analysis of the analyte at low concentration and was calculated as 10 times the signal-to-noise ratio.

[1] = Extract: skin extracted overnight after 6 h

O=C(OC1COC2C(OC(=O)c3ccc(CC4CO4)cc3)COC12)c1ccc(CC2CO2)cc1 [Compound 2, (3R,3aR,6S,6aR)-3,6-O-Bis[4-(3,4-epoxypropyl)benzoyl]-1,4:3,6-dianhydro-D-glucitol]
permeation of epidermis: observed
Average (µM) [1]: 0.345 µM
Average (µg/ml) [1]: 0.161 µg/mL
Replicate 1 [1]: 0.203 µg/mL
Replicate 2 [1]: 0.139 µg/mL
Replicate 3 [1]: 0.141 µg/mL
recovery at 6 h, 0.1 mg/mL: 48%
Average (µM) (receptor fluid, timepoint 0 h): 0 µM
Average (µg/ml) (receptor fluid, timepoint 0 h): 0 µg/mL
Replicate 1 (µg/ml) (receptor fluid, timepoint 0 h): < LOQ
Replicate 2 (µg/ml) (receptor fluid, timepoint 0 h): < LOQ
Replicate 3 (µg/ml) (receptor fluid, timepoint 0 h): < LOQ
Average (µM) (receptor fluid, timepoint 1 h): 0.123 µM
Average (µg/ml) (receptor fluid, timepoint 1 h): 0.0574 µg/mL
Replicate 1 (receptor fluid, timepoint 1 h): 0.0637 µg/mL
Replicate 2 (receptor fluid, timepoint 1 h): 0.0511 µg/mL
Average (µM) (receptor fluid, timepoint 2 h): 0.490 µM
Average (µg/ml) (receptor fluid, timepoint 2 h): 0.228 µg/mL
Replicate 1 (receptor fluid, timepoint 2 h): 0.299 µg/mL
Replicate 2 (receptor fluid, timepoint 2 h): 0.233 µg/mL
Replicate 3 (receptor fluid, timepoint 2 h): 0.154 µg/mL
Average (µM) (receptor fluid, timepoint 3 h): 0.669 µM
Average (µg/ml) (receptor fluid, timepoint 3 h): 0.312 µg/mL
Replicate 1 (receptor fluid, timepoint 3 h): 0.437 µg/mL
Replicate 2 (receptor fluid, timepoint 3 h): 0.320 µg/mL
Replicate 3 (receptor fluid, timepoint 3 h): 0.180 µg/mL
Average (µM) (receptor fluid, timepoint 4 h): 0.796 µM
Average (µg/ml) (receptor fluid, timepoint 4 h): 0.371 µg/mL
Replicate 1 (receptor fluid, timepoint 4 h): 0.538 µg/mL
Replicate 2 (receptor fluid, timepoint 4 h): 0.362 µg/mL
Replicate 3 (receptor fluid, timepoint 4 h): 0.213 µg/mL
Average (µM) (receptor fluid, timepoint 5 h): 0.721 µM
Average (µg/ml) (receptor fluid, timepoint 5 h): 0.336 µg/mL
Replicate 1 (receptor fluid, timepoint 5 h): 0.500 µg/mL
Replicate 2 (receptor fluid, timepoint 5 h): 0.323 µg/mL
Replicate 3 (receptor fluid, timepoint 5 h): 0.186 µg/mL
Average (µM) (receptor fluid, timepoint 6 h): 0.679 µM
Average (µg/ml) (receptor fluid, timepoint 6 h): 0.317 µg/mL
Replicate 1 (receptor fluid, timepoint 6 h): 0.474 µg/mL
Replicate 2 (receptor fluid, timepoint 6 h): 0.309 µg/mL
Replicate 3 (receptor fluid, timepoint 6 h): 0.166 µg/mL
amount in receptor fluid after 6 h (%): 31.7 ± 12.6%
amount on/in skin (%): 16.1 ± 3.0%
recovery (%): 47.7 ± 15.6%

c1cc(CC2CO2)ccc1CO[C@H]1CO[C@H]2[C@@H]1OC[C@H]2OCc1ccc(CC2CO2)cc1 (stereo partly drawn) [Compound 3, (3R,3aR,6S,6aR)-3,6-O-Bis[4-(3,4-epoxypropyl)benzyl]-1,4:3,6-dianhydro-D-glucitol]
permeation of epidermis: observed
Average (µM) [1]: 0.0736 µM
Average (µg/ml) [1]: 0.0323 µg/mL
Replicate 1 [1]: 0.0650 µg/mL
Replicate 2 [1]: 0.000965 µg/mL
Replicate 3 [1]: 0.0309 µg/mL
recovery at 6 h, 0.1 mg/mL: 25%
Average (µM) (receptor fluid, timepoint 0 h): 0 µM
Average (µg/ml) (receptor fluid, timepoint 0 h): 0 µg/mL
Replicate 1 (µg/ml) (receptor fluid, timepoint 0 h): < LOQ
Replicate 2 (µg/ml) (receptor fluid, timepoint 0 h): < LOQ
Replicate 3 (µg/ml) (receptor fluid, timepoint 0 h): < LOQ
Average (µM) (receptor fluid, timepoint 1 h): 0.187 µM
Average (µg/ml) (receptor fluid, timepoint 1 h): 0.0818 µg/mL
Replicate 1 (receptor fluid, timepoint 1 h): 0.0897 µg/mL
Replicate 2 (receptor fluid, timepoint 1 h): 0.110 µg/mL
Replicate 3 (receptor fluid, timepoint 1 h): 0.0460 µg/mL
Average (µM) (receptor fluid, timepoint 2 h): 0.465 µM
Average (µg/ml) (receptor fluid, timepoint 2 h): 0.204 µg/mL
Replicate 1 (receptor fluid, timepoint 2 h): 0.139 µg/mL
Replicate 2 (receptor fluid, timepoint 2 h): 0.292 µg/mL
Replicate 3 (receptor fluid, timepoint 2 h): 0.180 µg/mL
Average (µM) (receptor fluid, timepoint 3 h): 0.563 µM
Average (µg/ml) (receptor fluid, timepoint 3 h): 0.247 µg/mL
Replicate 1 (receptor fluid, timepoint 3 h): 0.191 µg/mL
Replicate 2 (receptor fluid, timepoint 3 h): 0.347 µg/mL
Replicate 3 (receptor fluid, timepoint 3 h): 0.203 µg/mL
Average (µM) (receptor fluid, timepoint 4 h): 0.542 µM
Average (µg/ml) (receptor fluid, timepoint 4 h): 0.238 µg/mL
Replicate 1 (receptor fluid, timepoint 4 h): 0.202 µg/mL
Replicate 2 (receptor fluid, timepoint 4 h): 0.309 µg/mL
Replicate 3 (receptor fluid, timepoint 4 h): 0.203 µg/mL
Average (µM) (receptor fluid, timepoint 5 h): 0.539 µM
Average (µg/ml) (receptor fluid, timepoint 5 h): 0.236 µg/mL
Replicate 1 (receptor fluid, timepoint 5 h): 0.204 µg/mL
Replicate 2 (receptor fluid, timepoint 5 h): 0.306 µg/mL
Replicate 3 (receptor fluid, timepoint 5 h): 0.198 µg/mL
Average (µM) (receptor fluid, timepoint 6 h): 0.495 µM
Average (µg/ml) (receptor fluid, timepoint 6 h): 0.217 µg/mL
Replicate 1 (receptor fluid, timepoint 6 h): 0.165 µg/mL
Replicate 2 (receptor fluid, timepoint 6 h): 0.298 µg/mL
Replicate 3 (receptor fluid, timepoint 6 h): 0.189 µg/mL
amount in receptor fluid after 6 h (%): 21.7 ± 5.8%
amount on/in skin (%): 3.2 ± 2.6%
recovery (%): 24.9 ± 8.4%
